According to patent US20200352912A1, “ANTIMICROBIAL COMPOSITIONS AND METHODS OF USING THE SAME” (The Board Of Supervisors Of Louisiana State University And …, priority 2018, published 2020):

Assays:
[1] = test system: S. aureus mono-species biofilm; test: biofilm formation on polystyrene (XTT, CFU); assay type: cell-based, Staphylococcus aureus
Procedure: (§1) The effect of L-161,982 on biofilm formation was tested. Mono- and dual-species C. albicans and/or S. aureus biofilms were grown on 96-well plates for 24 h with the indicated concentration of L-161, 982. After incubation, metabolic activity of biofilms was quantified by the XTT assay (A) and then biofilms were disrupted to determine live colony forming units (CFU) (B). The results are cumulative of three independent experiments with duplicate samples. Statistics was performed using One-way ANOVA with the Tukey post-hoc test for the XTT assay. The Mann-Whitney U test was used to analyze CFU data. Significance is indicated as follows: ns—not significant, *P<0.05; *** P<0.001. Error bars represent standard deviation.
Following growth as described above, microbes were washed in phosphate-buffered saline (PBS) by centrifugation, counted on a hemocytometer, and adjusted to 2×10^7 CFU/ml in RPMI buffered with MOPS (165 mM). For monomicrobial biofilms, 50 μl of adjusted C. albicans or S. aureus culture was added to each well of a sterile 96-well cell culture polystyrene microtiter plate (1×10^6 CFU per well); to this, 50 μl of sterile RPMI+MOPS was added. For polymicrobial biofilms, 50 μl of each organism was added per well (1×10^6 CFU of each organism per well). Plates were incubated for 24 h at 37° C. to induce biofilm formation. Following confirmation of mature biofilm growth by macro- and microscopic examination, plates were washed once with 200 μl sterile saline and then 200 μl RPMI+MOPS containing L-161, 982 at various concentrations (6.25-200 μg/ml) added to each well. L-161, 982-free RPMI+MOPS was added to wells with and without microbes to serve as positive and negative controls, respectively. […]
(§2) The XTT reduction assay was used to determine the metabolic activity of biofilms following treatment with L-161, 982 (17). Briefly, wells were washed once in PBS, and plates incubated at 37° C. for 2 h with 200 μl XTT working reagent (0.5 mg/ml XTT and 1 μM Menadione) and the resulting absorbance measured at 490 nm on a microplate spectrophotometer. […]

[2] = test system: C. albicans mono-species biofilm; test: biofilm formation on polystyrene (XTT, CFU); assay type: cell-based, Candida albicans; conditions: treated vs untreated mono-species biofilms
Procedure: as §1
Following growth as described above, microbes were washed in phosphate-buffered saline (PBS) by centrifugation, counted on a hemocytometer, and adjusted to 2×10^7 CFU/ml in RPMI buffered with MOPS (165 mM). […]
as §2

S. aureus NRS383 = test: mouse MRSA peritonitis/sepsis model; assay type: in vivo, mice; conditions: for survival by day 2 post-inoculation: 10 mg/kg i.p.
Procedure: Mice were infected intraperitoneally with 0.2 ml of the indicated inoculum of S. aureus NRS383 in 3% hog gastric mucin/PBS. One group of mice/inoculum received either the vehicle or L-161, 982 at a dose of 10 mg/kg by i.p. injection as indicated in Materials and Methods. (A) Mortality was assessed using Kaplan Meier test (*P<0.05; **P<0.01; ***P<0.001; ns—not significant; n=15/group) compared to control groups. (B) Microbial burden in peritoneal lavage fluid and spleen was assessed between untreated (control) and treated (L-161, 982) groups 24 and 48 h post-inoculation (n=6 to 8/group). Values are plotted as the median CFU and compared using the Mann-Whitney U test (**P<0.01; ***P<0.001). Data shown are representative of three replicate experiments.
The mouse peritonitis/intra-abdominal model was performed as previously described (8). In brief, for MRSA peritonitis, mice were injected intraperitoneally (i.p.) with 4×10^6 CFU or 5×10^6 CFU or 2×10^7 CFU of S. aureus in 0.2 ml of PBS containing 3% hog gastric mucin type III (Sigma Aldrich). Mice injected i.p. with 0.2 ml of mucin/PBS served as a negative infection control. For the intra-abdominal infection with C. albicans and S. aureus, mice were injected i.p. with 7×10^6 CFU of C. albicans and 8×10^7 CFU of S. aureus (8.7×10^7 CFU total) in 0.2 ml of PBS. After inoculation, mice were observed over 10 days for signs of morbidity (hunched posture, inactivity, lethargy, and ruffled fur) and mortality. […] In the MRSA peritonitis experiments, mice were sacrificed at 24 or 48 h post-inoculation to assess microbial burden. Peritoneal cavities were lavaged by injection of 2 ml of sterile PBS followed by gentle massaging of the peritoneal cavity. Peritoneal lavage fluid then was removed using a pipette inserted into a small incision in the abdominal cavity. Spleens were removed, weighed, and mechanically homogenized prior to CFU analysis. Microbial burdens in the peritoneal lavage fluid and spleen were enumerated as described above.
Each inhibitor was prepared fresh as a concentrated stock (20-25 mg/ml) in DMSO and diluted to a working concentration of […] in sterile PBS (final DMSO concentration, 2.3%). A sham treatment containing only 2.3% DMSO in PBS was also prepared. For the MRSA peritonitis study, the EP4 receptor antagonist was administered 2 h after S. aureus inoculation and once daily thereafter until day 4 post inoculation. For the IAI co-infection study, COX inhibitor or vehicle control was administered 4 h prior to and 4 and 8 h after inoculation with C. albicans and S. aureus while the EP receptor antagonists were administered daily starting 1 day prior to and 5 days after infection. All other procedures were performed as described above. Control groups received the vehicle at the same dose interval.
L-161, 982 protects against mono- and poly-microbial infections with MRSA. We next evaluated the efficacy of L-161, 982 in vivo using an established mouse peritonitis/sepsis model of infection. Mice were inoculated with three varying lethal inocula of S. aureus and treated with L-161, 982 (10 mg/kg) intraperitoneally (i.p.) 2 h post-inoculation and once daily afterwards through day 4. Control group received the vehicle at the same dose interval.

HCA-7 colon cancer cells = conditions: 10 μM; cited from earlier work

Structure (SMILES): CCCCc1nn(-c2ccccc2C(F)(F)F)c(=O)n1Cc1ccc(-c2ccccc2S(=O)(=O)NC(=O)c2sccc2C)cc1 [L-161, 982, N-[[4′-[[3-Butyl-1,5-dihydro-5-oxo-1-[2-(trifluoromethyl)phenyl]-4H-1,2,4-triazol-4-yl]methyl][1,1′-biphenyl]-2-yl]sulfonyl]-3-methyl-2-thiophenecarboxamide]
- CFUs of S. aureus, biofilm formation ([1]; 6.25 to 25 μg/ml): significantly reduced
- metabolic activity (XTT) during biofilm formation ([1]; all concentrations tested, 24 h): significantly inhibited
- CFUs of S. aureus, biofilm formation ([1]; concentrations >50 μg/ml): no viable cells were recovered
- metabolic activity during biofilm formation [2]: no significant inhibition
- reduction of S. aureus in peritoneal cavity and spleen (S. aureus NRS383; 24 h post inoculation, vs untreated): 3 logs
- additional reduction of S. aureus in peritoneal cavity and spleen (S. aureus NRS383; 48 h post infection, after a second dose): 3 log
- mortality by day 2 at high inoculum (S. aureus NRS383; inoculum 2×10^7 CFU): could not be reversed
- survival by day 2 post-inoculation (S. aureus NRS383; inoculum 4×10^6 CFU, control 40): 85%
- survival by day 2 post-inoculation (S. aureus NRS383; inoculum 5×10^6 CFU, control 25): 55%
- survival through day 10 (S. aureus NRS383; intermediate and lowest inocula, continued dosing, control 20% survival): sustained survival
- survival rate raised by (S. aureus NRS383; one treatment, depending on infectious dose): at least 50%
- effect on PGE2-induced cell proliferation (HCA-7 colon cancer cells): blocks PGE2-induced cell proliferation
